These results are taken from US11401279B2, “Pyrido[3,2-d]pyrimidine compounds as immunomodulators” (Incyte Corporation, priority 2019, dated 2022).

One data set deals with PD-1/PD-L1 (Homo sapiens (Human), UniProt Q9NZQ7). In words: Homogeneous Time-Resolved Fluorescence (HTRF) PD-1/PD-L1 binding assay. The conditions noted are these: recombinant human PD-1 and PD-L1. The procedure:
The assays were conducted in a standard black 384-well polystyrene plate with a final volume of 20 μL. Inhibitors were first serially diluted in DMSO and then added to the plate wells before the addition of other reaction components. The final concentration of DMSO in the assay was 1%. The assays were carried out at 25° C. in the PBS buffer (pH 7.4) with 0.05% Tween-20 and 0.1% BSA. Recombinant human PD-L1 protein (19-238) with a His-tag at the C-terminus was purchased from AcroBiosystems (PD1-H5229). Recombinant human PD-1 protein (25-167) with Fc tag at the C-terminus was also purchased from AcroBiosystems (PD1-H5257). PD-L1 and PD-1 proteins were diluted in the assay buffer and 10 μL was added to the plate well. Plates were centrifuged and proteins were preincubated with inhibitors for 40 minutes. The incubation was followed by the addition of 10 μL of HTRF detection buffer supplemented with Europium cryptate-labeled anti-human IgG (PerkinElmer-AD0212) specific for Fc and anti-His antibody conjugated to SureLight®-Allophycocyanin (APC, PerkinElmer-AD0059H). After centrifugation, the plate was incubated at 25° C. for 60 min. before reading on a PHERAstar FS plate reader (665 nm/620 nm ratio). Final concentrations in the assay were—3 nM PD1, 10 nM PD-L1, 1 nM europium anti-human IgG and 20 nM anti-His-Allophycocyanin. IC50 determination was performed by fitting the curve of percent control activity versus the log of the inhibitor concentration using the GraphPad Prism 5.0 software.

For the next data set, the target named is PD-L1 (Homo sapiens (Human), UniProt Q9NZQ7). In words: PD-L1 whole blood internalization assay. The conditions noted are these: PD-L1 internalization in human whole blood, CD14+ cells, interferon γ, 24 hour. The format is cell-based. The protocol: To determine PD-L1 internalization in human whole blood, normal human blood (Biological Specialty Corp, Colmar. Pa.) was incubated in the presence or absence of a concentration range of test compounds and 1 ng/mL human interferon γ (R&D Systems Inc. Minn. […] Blood was then stained with PD-L1 (MIH1, eBioscience; or BD Biosciences San Jose, Calif.), CD14 (Life Technologies, Carlsbad, Calif.) for 30 minutes in the dark at room temperature. Whole Blood/red cells were lysed/fixed (lysis buffer BD Biosciences) for 5 minutes at 37° C. in the dark and then centrifuged at 1600 RPM for 5 minutes. Cells were resuspended in Stain Buffer (BD Bioscience, San Jose, Calif.) and transferred into 96 well round bottom plates (Corning). Cells were gated on CD14+(BD Biosciences) and PD-L1 expression determined by mean fluorescence intensity (MFI) (BD LSRFortessa™ X-20). IC50 determination was performed by fitting the curve of compound percent inhibition versus the log of the compound concentration using the GraphPad Prism 7.0 software.
PD-L1, sequence (Q9NZQ7 19-290): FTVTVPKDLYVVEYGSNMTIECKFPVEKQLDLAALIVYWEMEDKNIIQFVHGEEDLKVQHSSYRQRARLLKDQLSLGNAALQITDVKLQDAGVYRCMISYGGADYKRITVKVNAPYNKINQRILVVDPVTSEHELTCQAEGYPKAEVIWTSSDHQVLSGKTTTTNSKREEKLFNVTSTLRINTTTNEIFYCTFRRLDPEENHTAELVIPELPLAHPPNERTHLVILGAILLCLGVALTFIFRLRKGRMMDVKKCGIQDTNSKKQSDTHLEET

Data set [1] concerns U2OS/PD-L1 cells and Jurkat-PD-1-SHP cells. Put plainly: Src homology region 2 domain-containing phosphatase (SHP) assay. The format is cell-based. The note with it: Homo sapiens, U2OS; PathHunter chemiluminescence, 2 hours. The protocol:
U2OS/PD-L1 cells (DiscoveRx Corporation) were maintained in McCoy's 5A medium with addition of 10% FBS, 0.25 μg/mL Puromycin. After removing the culture media, the cell medium was replaced with assay medium (RPMI1640 medium with 1% FBS). The U2OS/PD-L1 cells were then added in 384-well black clear bottom assay plate (CELLCOAT® Tissue Culture Plates, Greiner Bio-One) at 5000 cells per well in 20 μL assay medium. Test compounds were prepared by serial dilution in DMSO and 125 nL compound were first transferred to the 384 REMP plate well (Thermofisher) by ECHO liquid handler (Labcyte) followed with addition of 27.5 μL assay medium. 5 µL/well compounds in the assay medium were transferred to the cell plate with 0.05% DMSO in the final assay at 0.25 μM. Jurkat-PD-1-SHP cells (DiscoveRx Corporation) were cultured in RPMI1640 medium supplemented with 10% FBS, 250 μg/mL Hygromycin B, 500 μg/mL G418. After the replacement of culture media with assay medium, 5,000 Jurkat-PD-1-SHP cells in 20 μL were dispensed into each well. The assay plate was incubated at 37° C., 5% CO2 for 2 hours before 2.5 μL PathHunter reagent 1 (DiscoveRx Corporation) were added to each well. The assay plate was shaken for 1 min at 350 rpm in the dark followed with addition of 10 μL PathHunter reagent 2 (DiscoveRx Corporation). Chemiluminescent signal was recorded with TopCount reader (Perkin Elmer) after incubation at room temperature for 1 hour. Wells with DMSO were served as the positive controls and wells containing no cells were used as negative controls. IC50 determination was performed by fitting the curve of percentage of control activity versus the log of the compound concentration using the GraphPad Prism 6.0 software.

Data set [2] deals with PD-L1 aAPC/CHO-K1 cells and Jurkat-PD-1-NFAT effector cells. In words: Nuclear factor of activated T-cells (NFAT) assay. The note with it: Cricetulus griseus, CHO-K1; luminescence, 24 hours. The data set is classed as cell-based. The procedure: PD-L1 aAPC/CHO-Klcells (Promega) were maintained in F-12 medium with addition of 10% FBS, 200 μg/mL Hygromycin B, 250 μg/mL Geneticin (G418). Jurkat-PD-1-NFAT effector cells (Promega) were cultured in RPMI 1640 medium supplemented with 10% FBS, 100 μg/mL Hygromycin B, 500 μg/mL G418. The culture media of PD-L1 aAPC/CHO-K1 cells were first replaced with assay medium (RPMI1640 medium with 1% FBS). The PD-L1 aAPC/CHO-Klcells were then added in a white 384-well white clear bottom assay plate (CELLCOAT® Tissue Culture Plates, Greiner Bio-One) at 8000 per well in 10 μL assay medium. Test compounds were prepared by serial dilution in DMSO and 0.8 μL test compounds in DMSO were first transferred to the 384 REMP plate well (Thermofisher) by PlateMate Plus (Thermofisher) followed with addition of 50 μL plating medium. 5 μL compounds in the assay medium were transferred to the cells with 0.4% DMSO in the final assay at 2 μM. After removing the culture media, 10,000 Jurkat-PD-1-NFAT effector cells in 5 μL assay medium was dispensed into each well. The assay plate was incubated at 37° C., 5% CO2 for 24 hours. After the assay plate was equilibrated to room temp for 15 minutes, 20 μL/well of Bio-Glo™ reagent (Promega) were added. After 8 minutes incubation at room temperature, luminescence was read at with Pherastar microplate reader (BMG Labtech). The fold of induction (FOI) was calculated based on the ratio of luminescence normalized to the DMSO wells within each assay plate. The maximum percentage of induction was reported based on the ratio between the highest FOI of each compound and the maximum FOI of control compound within each assay plate. Wells with DMSO were served as the negative controls and wells containing control compound with the highest FOI were used as positive controls. EC50 determination was performed by fitting the curve of percent control activity versus the log of the compound concentration using the GraphPad Prism 6.0 software.

Data set [3] is described as follows: In vivo pharmacokinetics in rats. The arrangement: species or system Sprague Dawley rats. The conditions noted are these: rat, cassette dosing. The protocol:
For in vivo pharmacokinetic experiments, test compounds were administered to male Sprague Dawley rats or male and female Cynomolgus monkeys intravenously or via oral gavage. For intravenous (IV) dosing, test compounds were dosed at 0.5 to 1 mg/kg using a formulation of 10% dimethylacetamide (DMAC) in acidified saline via IV bolus for rat and 5 min or 10 min IV infusion for monkey. For oral (PO) dosing, test compounds were dosed at 1.0 to 3.0 mg/kg using 5% DMAC in 0.5% methylcellulose in citrate buffer (pH 3.5). Blood samples were collected at predose and various time points up to 24 hours postdose. All blood samples were collected using EDTA as the anticoagulant and centrifuged to obtain plasma samples. The plasma concentrations of test compounds were determined by LC-MS methods. The measured plasma concentrations were used to calculate PK parameters by standard noncompartmental methods using Phoenix® WinNonlin software program (version 7.0, Pharsight Corporation).
In rats and monkeys, cassette dosing of test compounds were conducted to obtain preliminary PK parameters.

The mark [4] stands for this setting: male, Sprague-Dawley, plasma, 1.0 mg/kg IV.

Structures are written as SMILES.

PD-1/PD-L1, sequence (Q9NZQ7 19-238): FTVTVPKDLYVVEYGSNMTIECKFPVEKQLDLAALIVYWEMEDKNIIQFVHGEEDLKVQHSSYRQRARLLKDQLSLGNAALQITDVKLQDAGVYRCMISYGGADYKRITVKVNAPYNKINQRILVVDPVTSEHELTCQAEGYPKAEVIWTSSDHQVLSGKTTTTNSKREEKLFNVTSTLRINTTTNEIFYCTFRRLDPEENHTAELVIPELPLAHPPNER

With `Cc1c(NC(=O)c2nc3c(n2C)CCN(C)C3)cccc1-c1cccc(NC(=O)c2nc3c(n2C)CCN(CC24CCC(C(=O)O)(CC2)C4)C3)c1Cl` [Example 119, reference compound], the figures for the IC50 (on PD-1/PD-L1; against PD-L1; in data set [1]) were 3.4 nM, 178 nM and 4.9 nM, respectively. Also, it took 82 nM to reach a half-maximal effect in data set [2] (EC50).
`Cc1c(Nc2nc(C(F)F)nc3cc(CN4CC(C)(O)C4)cnc23)cccc1-c1cccc(NC(=O)c2nc3c(n2C)CCN(CCC24CCC(C(=O)O)(CC2)C4)C3)c1Cl` [Example 14, 4-(2-(2-((2-chloro-3′-((2-(difluoromethyl)-7-((3-hydroxy-3-methylazetidin-1-yl)methyl)pyrido[3,2-d]pyrimidin-4-yl)amino)-2′-methyl-[1,1′-biphenyl]-3-yl)carbamoyl)-1-methyl-1,4,6,7-tetrahydro-5H-imidazo[4,5-c]pyridin-5-yl)ethyl)bicyclo[2.2.1]heptane-1-carboxylic Acid]: the IC50 worked out at 1.7 nM on PD-1/PD-L1, 20 nM on PD-L1 and 3 nM in data set [1]. The half-maximal effective concentration (EC50) in data set [2] amounted to 3 nM.
Turning to `Cc1c(Nc2nc(C(F)F)nc3cc(CN4C[C@H](O)C[C@H]4C)cnc23)cccc1-c1cccc(NC(=O)c2nc3c(n2C)CCN(CCC24CCC(C(=O)O)(CC2)C4)C3)c1Cl` [Example 11, 4-(2-(2-((2-chloro-3′-((2-(difluoromethyl)-7-(((2R,4R)-4-hydroxy-2-methylpyrrolidin-1-yl)methyl)pyrido[3,2-d]pyrimidin-4-yl)amino)-2′-methyl-[1,1′-biphenyl]-3-yl)carbamoyl)-1-methyl-1,4,6,7-tetrahydro-5H-imidazo[4,5-c]pyridin-5-yl)ethyl)bicyclo[2.2.1]heptane-1-carboxylic Acid], the 50% inhibitory concentration (IC50) at PD-1/PD-L1 turned out to be 1.5 nM; on PD-L1 it was 27 nM; in data set [1], 3 nM. The compound further returned an EC50 in data set [2] of 5 nM.
For the compound `Cc1c(Nc2nc(C(F)F)nc3cc(CN4C[C@H](O)C[C@@H]4C)cnc23)cccc1-c1cccc(NC(=O)c2nc3c(n2C)CCN(CCC24CCC(C(=O)O)(CC2)C4)C3)c1Cl` [Example 10, 4-(2-(2-((2-chloro-3′-((2-(difluoromethyl)-7-(((2S,4R)-4-hydroxy-2-methylpyrrolidin-1-yl)methyl)pyrido[3,2-d]pyrimidin-4-yl)amino)-2′-methyl-[1,1′-biphenyl]-3-yl)carbamoyl)-1-methyl-1,4,6,7-tetrahydro-5H-imidazo[4,5-c]pyridin-5-yl)ethyl)bicyclo[2.2.1]heptane-1-carboxylic Acid], the IC50 on PD-1/PD-L1 came to 1.5 nM; against PD-L1, 35 nM; in data set [1], 4 nM. This compound registered a concentration for a half-maximal effect (EC50) in data set [2] of 4 nM.
Turning to `Cc1c(NC(=O)c2nc3c(n2C)CCN(CCC24CCC(C(=O)O)(CC2)C4)C3)cccc1-c1cccc(Nc2nc(C(F)F)nc3cc(CN4CC[C@@](C)(O)C4)cnc23)c1C` [Example 6, (R)-4-(2-(2-((3′-((2-(difluoromethyl)-7-((3-hydroxy-3-methylpyrrolidin-1-yl)methyl)pyrido[3,2-d]pyrimidin-4-yl)amino)-2,2′-dimethyl-[1,1′-biphenyl]-3-yl)carbamoyl)-1-methyl-1,4,6,7-tetrahydro-5H-imidazo[4,5-c]pyridin-5-yl)ethyl)bicyclo[2.2.1]heptane-1-carboxylic Acid], the results for the half-inhibitory concentration (IC50) (against PD-L1; in data set [1]) were 31 nM and 2.2 nM, respectively. Also, the clearance in data set [3] (setting [4]) is 12.7 mL/min/kg. Further, in data set [3] (setting [4]), the half-life is 4.5 h. Besides, the Vd in data set [3] (male, Sprague-Dawley, plasma, 1.0 mg/kg IV, read-out: Vss) turned out to be 2.99 L/kg. This compound also gave a Cmax in data set [3] (male, Sprague-Dawley, plasma, 3.0 mg/kg PO) of 182 nM. Besides, in data set [3] (male, Sprague-Dawley, plasma, 3.0 mg/kg PO, read-out: AUC0-inf), the AUC(0-inf) worked out at 1.43 µM·h. In addition, the F in data set [3] (3.0 mg/kg PO) was found to be 30%. Moreover, in data set [2], the half-maximal effective concentration (EC50) was 8.2 nM.
As to `Cn1c(C(=O)Nc2cccc(-c3cccc(NC(=O)c4nc5c(n4C)CCN(C4CCOCC4)C5)c3Cl)c2Cl)nc2c1CCN(CC13CCC(C(=O)O)(CC1)C3)C2` [Example 179, reference compound], the half-inhibitory concentration (IC50) was 18 nM at PD-1/PD-L1 and 61 nM in data set [1]. This compound also returned an EC50 in data set [2] of 709 nM.
